The source of these data is US20240050601A1, “COMPOSITIONS AND ASSOCIATED METHODS FOR SUSTAINED-RELEASE OF RADIOACTIVE AGENTS AND THEIR APPLICATIONS” (priority 2020, published 2024).

The test system of data set [1] is myeloproliferative neoplasms (MPNs). The conditions noted are these: low dose range (5-7 mCi per intravenous injection, total up to 4 injections); cited from earlier work.
Another data set is described as follows: in vivo. As to conditions: Balb/C, mouse.

Structures are written as SMILES.

Protocol for in vivo: The hydrogel was prepared, kept in a 4° C. refrigerator overnight ensuring a complete mixing, and balanced to ambient temperature prior to the administration. The molecular weight of ICG is 775 Da, which was used here as an example of small molecule. Two animal groups with different route of subcutaneous (s.c.) or intramuscular (i.m.) injection was assessed with an injection volume of 500 μl or 50 μl, respectively. The imaging was conducted for the animals immediately after hydrogel administration (within 1 minute), and then at predetermined time points of post injection.

For `O=[32P](O)(O)O` [phosphate P-32], the “tolerability and efficacy in MPNs” value in data set [1] is “well-tolerated and efficacious”.
`CC1(C)C(/C=C/C=C/C=C/C=C2\N(CCCCS(=O)(=O)O)c3ccc4ccccc4c3C2(C)C)=[N+](CCCCS(=O)(=O)[O-])c2ccc3ccccc3c21` [TCG, indocyanine green]: the half-life (as a rule, the time needed for the level to fall by half in the phase considered) in the data set “in vivo” (im, 50 μl) is approximately 4 h; in “in vivo” (sc, 500 μl) it was approximately 24 h.
